Measurements reported in patent US8741836B2, “Polypeptides” (Novo Nordisk A/S, priority 2011, dated 2014).
Starred links: 1 amine or outer side, 2 acyl side, 3 side chain; linkers in the order of their positions; H or OH if unused. Positions of bridges follow the written chain, without caps; N, C: chain ends. Residues, ends and D or L forms follow the SMILES beside them. *: point of attachment. C20 diacid = O=C(O)CCCCCCCCCCCCCCCCCCC(=O)*; γGlu = O=C(O)[C@H](CCC(=O)[*:2])N[*:1]

Experiment: Assay (III) ThT fibrillation assay for physical stability
Format: physicochemical
Source text: Assay (III)—ThT Fibrillation Assays for the Assessment of Physical Stability of Protein formulations Low physical stability of a polypeptide may lead to amyloid fibril formation, which is observed as well-ordered, thread-like macromolecular structures in the sample eventually resulting in gel formation. This has traditionally been measured by visual inspection of the sample. However, that kind of measurement is very subjective and depending on the observer. Therefore, the application of a small molecule indicator probe is much more advantageous. Thioflavin T (ThT) is such a probe and has a distinct fluorescence signature when binding to fibrils [Naiki et al. (1989) Anal. Biochem. 177, 244-249; LeVine (1999) Methods. Enzymol. […], 274-284]. The time course for fibril formation can be described by a sigmoidal curve with the following expression [Nielsen et al. (2001) Biochemistry 40, 6036-6046]: [formula] Here, F is the ThT fluorescence at the time t. The constant t0 is the time needed to reach 50% of maximum fluorescence. […] Few of those intermediates nucleate to form a template onto which further intermediates may assembly and the fibrillation proceeds. The lag-time corresponds to the interval in which the critical mass of nucleus is built up and the apparent rate constant is the rate with which the fibril itself is formed. Sample Preparation Samples were prepared freshly before each assay. Each sample composition is described in each example. The pH of the sample was adjusted to the desired value using appropriate amounts of concentrated NaOH and HClO4 or HCl. Thioflavin T was added to the samples from a stock solution in H2O to a final concentration of 1 μM. Sample aliquots of 200 μl were placed in a 96 well microtiter plate (Packard OptiPlate™-96, white polystyrene). Usually, four or eight replica of each sample (corresponding to one test condition) were placed in one column of wells. The plate was sealed with Scotch Pad (Qiagen). Incubation and Fluorescence Measurement Incubation at given temperature, shaking and measurement of the ThT fluorescence emission were done in a Fluoroskan Ascent FL fluorescence platereader or Varioskan platereader (Thermo Labsystems). The temperature was adjusted to 37° C. The orbital shaking was adjusted to 960 rpm with an amplitude of 1 mm in all the presented data. Fluorescence measurement was done using excitation through a 444 nm filter and measurement of emission through a 485 nm filter. Each run was initiated by incubating the plate at the assay temperature for 10 min. The plate was measured every 20 minutes for a desired period of time. Between each measurement, the plate was shaken and heated as described. Data Handling The measurement points were saved in Microsoft Excel format for further processing and curve drawing and fitting was performed using GraphPad Prism. The background emission from ThT in the absence of fibrils was negligible. The data points are typically a mean of four or eight samples and shown with standard deviation error bars. Only data obtained in the same experiment (i.e. samples on the same plate) are presented in the same graph ensuring a relative measure of fibrillation between experiments. The data set may be fitted to Eq. (1). However, since full sigmodial curves in this case are not always achieved during the measurement time, the degree of fibrillation is expressed as ThT fluorescence tabulated as the mean of the samples and shown with the standard deviation at various time points. Measurement of Initial and Final Concentrations The polypeptide concentration in each of the tested formulations were measured both before application in the ThT fibrillation assay (“Initial”) and after completion of the ThT fibrillation (“After ThT assay”). Concentrations were determined by reverse HPLC methods using a pramlintide standard as a reference. Before measurement after completion 150 μl was collected from each of the replica and transferred to an Eppendorf tube. […]

Row | Structure (SMILES) | ThT pH 4.0 lag time (physical stability in fibrillogenesis assay) | ThT pH 4.0 lag time (pH 4.0, ThT fibrillation assay)
1 | CC[C@H](C)[C@H](NC(=O)[C@@H]1CCCN1C(=O)CNC(=O)[C@H](Cc1ccccc1)NC(=O)[C@H](CC(N)=O)NC(=O)[C@H](CC(N)=O)NC(=O)[C@H](CO)NC(=O)[C@H](CO)NC(=O)[C@H](Cc1c[nH]cn1)NC(=O)[C@H](CCCNC(=N)N)NC(=O)[C@H](CC(C)C)NC(=O)[C@H](Cc1ccccc1)NC(=O)[C@H](CCC(=O)O)NC(=O)[C@H](C)NC(=O)[C@H](CC(C)C)NC(=O)[C@H](CCCNC(=N)N)NC(=O)[C@H](CCC(N)=O)NC(=O)[C@@H](NC(=O)[C@H](C)NC(=O)[C@@H]1CSSC[C@H](NC(=O)[C@H](CCCCN)NC(=O)CC[C@H](NC(=O)CCCCCCCCCCCCCCCCCCC(=O)O)C(=O)O)C(=O)N[C@@H](CC(N)=O)C(=O)N[C@@H]([C@@H](C)O)C(=O)N[C@@H](C)C(=O)N[C@@H]([C@@H](C)O)C(=O)N1)[C@@H](C)O)C(=O)N[C@@H](CC(C)C)C(=O)N1CCC[C@H]1C(=O)N1CCC[C@H]1C(=O)N[C@H](C(=O)N[C@@H](CC(N)=O)C(=O)N[C@H](C(=O)NCC(=O)N[C@@H](CO)C(=O)N[C@@H](Cc1cnc[nH]1)C(=O)N[C@H](C(=O)N[C@@H](Cc1ccc(O)cc1)C(N)=O)[C@@H](C)O)C(C)C)[C@@H](C)O [Example 57, N-alpha-[(S)-4-Carboxy-4-(19-carboxynonadecanoylamino)butyryl]-[Glu14,Arg17,His35]-pramlintide] ({C20 diacid-γGlu}-KCNTATCATQRLAEFLRHSSNNFGPILPPTNVGSHTY-NH2; disulfide 2-7) | >45 h | 
2 | CC[C@H](C)[C@H](NC(=O)[C@@H]1CCCN1C(=O)CNC(=O)[C@H](Cc1ccccc1)NC(=O)[C@H](CC(N)=O)NC(=O)[C@H](CC(N)=O)NC(=O)[C@H](CO)NC(=O)[C@H](CO)NC(=O)[C@H](Cc1c[nH]cn1)NC(=O)[C@H](CCCNC(=N)N)NC(=O)[C@H](CC(C)C)NC(=O)[C@H](Cc1ccccc1)NC(=O)[C@H](CCC(=O)O)NC(=O)[C@H](C)NC(=O)[C@H](CC(C)C)NC(=O)[C@H](CCCNC(=N)N)NC(=O)[C@H](CCC(N)=O)NC(=O)[C@@H](NC(=O)[C@H](C)NC(=O)[C@@H]1CSSC[C@H](NC(=O)[C@H](CCCCN)NC(=O)[C@H](CCC(=O)O)NC(=O)CC[C@H](NC(=O)CCCCCCCCCCCCCCCCCCC(=O)O)C(=O)O)C(=O)N[C@@H](CC(N)=O)C(=O)N[C@@H]([C@@H](C)O)C(=O)N[C@@H](C)C(=O)N[C@@H]([C@@H](C)O)C(=O)N1)[C@@H](C)O)C(=O)N[C@@H](CC(C)C)C(=O)N1CCC[C@H]1C(=O)N1CCC[C@H]1C(=O)N[C@H](C(=O)N[C@@H](CC(N)=O)C(=O)N[C@H](C(=O)NCC(=O)N[C@@H](CO)C(=O)N[C@@H](Cc1c[nH]cn1)C(=O)N[C@H](C(=O)N[C@@H](Cc1ccc(O)cc1)C(N)=O)[C@@H](C)O)C(C)C)[C@@H](C)O [Example 58, N-alpha-[(S)-4-Carboxy-4-(19-carboxynonadecanoylamino)butyryl]-Glu-[Glu14,Arg17,His35]-pramlintide] ({C20 diacid-γGlu}-EKCNTATCATQRLAEFLRHSSNNFGPILPPTNVGSHTY-NH2; disulfide 3-8 (inferred); C-terminus assumed) | >45 h | >45 h
